Measured values taken from patent US20030061633A1, “Modified dhps genes” (priority 1999, published 2003).

Tests used:
DHPS = DHPS enzyme activity in transgenic tubers (O-aminobenzaldehyde method); assay type: biochemical; conditions: transformed (mutant DHPS) versus control potato tubers
Procedure: Microtubers or mature tubers were homogenised with mortar and pestle in an equal volume of cold 100 mM Tris-HCl pH 7.5 containing 2 mM EDTA, 1.4% sodium ascorbate, 1 mM phenylmethylsulphonilfluoride and 0.5 Tg/ml leupeptin. Following 5 min. centrifugation (16,000 g at 4° C.) the supernatant is collected. DHPS activity was measured using the O-aminobenzaldehyde (O-ABA) method of Yugari and Gilvarg (Yugari, Y. and Gilvarg, C. (1965) J. Biol. Chem. 240: 4710-4716).

[1] = test system: dihydrodipicolinate synthase (DHPS); conditions: cited from earlier work
E. coli DHPS = E. coli DHPS (Escherichia coli, UniProt P0A6L2); conditions: read-out: I50 of E. coli DHPS for lysine; cited from earlier work
Sequence of E. coli DHPS (P0A6L2 whole entry): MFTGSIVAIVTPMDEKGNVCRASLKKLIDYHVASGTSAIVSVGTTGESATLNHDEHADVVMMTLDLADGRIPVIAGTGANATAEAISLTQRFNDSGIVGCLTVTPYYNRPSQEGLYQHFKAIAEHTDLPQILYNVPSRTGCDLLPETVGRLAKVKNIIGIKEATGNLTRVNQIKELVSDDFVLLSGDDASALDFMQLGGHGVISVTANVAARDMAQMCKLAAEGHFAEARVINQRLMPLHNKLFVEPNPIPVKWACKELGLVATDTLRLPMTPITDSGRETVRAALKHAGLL

| SMILES | AEC sensitivity of DHPS activity (DHPS) | sensitivity of plant DHPS to lysine inhibition relative to E. coli DHPS ([1]; more sensitive than E. coli DHPS) | sensitivity of plant DHPS to lysine inhibition relative to plant lysine-sensitive AKs ([1]; more sensitive than plant lysine-sensitive AKs) | IC50 (E. coli DHPS) [µM] |
| --- | --- | --- | --- | --- |
| NCCSC[C@H](N)C(=O)O [AEC, S-(2-aminoethyl)-L-cysteine] | reduced | – | – | – |
| NCCCC[C@H](N)C(=O)O [lysine] | – | about 100 fold | about 10 fold | ~1000 |
